{"source": "patent US20260033466A1", "about": "“METHOD AND ANIMAL MODEL FOR INDUCING BCC TUMORS” (FELDAN BIO INC., priority 2022, published 2026)", "key": {"BCC tumors": {"test_system": "BCC tumors", "experiment": "Anti-BCC treatment of induced BCC mice (tamoxifen/doxycycline and UV-B)", "format": "in vivo, mouse", "details": "begun 37-43 weeks post-induction"}, "[1]": {"test_system": "GFP (indicative of Ptch1 and p53 shRNA expression)", "experiment": "Immunofluorescence of GFP in skin of BCC mice after induction, no UV-B", "format": "in vivo, mouse", "details": "absence of UV, fluorescence microscopy of skin sections, FIG. 4", "experimental": "Positive GFP fluorescence is indicative of Ptch1 and p53 shRNA expression. […] Positive GFP fluorescence is indicative of Ptch1 and p53 shRNA expression.\nFor histological staining by immunofluorescence, sections were incubated 5 minutes in room temperature PBS to remove the OCT compound and then drained as much as possible. Slides were then blocked in BSA 3% and stained with anti-GFP antibody (ab6556 Abcam) or anti-Ptch1 (ThermoFisher PA5-87508) or anti-CK14 (BioLegend™ #906004) O/N at 4° C. Sections were then washed thrice (5 minutes each) with PBST and incubated with fluorophore-conjugated antibodies. Following washes (3×5 minutes), 100 μL per slide of ProLong™ Glass NucBlue™ (Invitrogen™) were applied and a coverslip. Slides were incubated overnight in the dark prior to imaging. Slides were imaged within 1-4 days after mounting and left in the dark until that time.\nNext, shRNA expression was assessed in the skin of mice, either untreated, or after induction with either tamoxifen alone, doxycycline alone, or tamoxifen/doxycycline in the absence of UV."}, "mouse Ptch1": {"test_system": "mouse Ptch1", "experiment": "shRNA knockdown efficiency reporter assay (Yuan et al. 2014)", "format": "cell-based", "details": "Ptch1 mRNA expression normalized to shRen713 (positive control); FIG. 2", "description": "Knockdown efficiency was calculated by Ptch1 mRNA expression normalized to shRen713 ([…]).\nKnockdown efficiency was calculated by Ptch1 mRNA expression normalized to shRen713 ([…]), a reporter shRNA targeting Renilla Luciferase 713."}}}
{"molecule": "CO[C@H]1C[C@@H]2CC[C@@H](C)[C@@](O)(O2)C(=O)C(=O)N2CCCC[C@H]2C(=O)O[C@H]([C@H](C)C[C@@H]2CC[C@@H](OCCO)[C@H](OC)C2)CC(=O)[C@H](C)/C=C(\\C)[C@@H](O)[C@@H](OC)C(=O)[C@H](C)C[C@H](C)/C=C/C=C/C=C/1C", "note": "[everolimus]", "values": [{"measurement": "tumor appearance (scabbing/crusting)", "setting": "BCC tumors; i.p. 3 mg/kg, after 7-12 days of treatment, FIG. 13", "result": "visible signs of scabbing/crusting of the tumors"}]}
{"molecule": "CC/C(=C(\\c1ccccc1)c1ccc(OCCN(C)C)cc1)c1ccccc1", "note": "[tamoxifen]", "values": [{"measurement": "GFP expression in skin (shRNAs targeting Ptch1 and p53)", "setting": "[1]", "result": "no expression of GFP"}]}
{"molecule": "CS(=O)(=O)c1ccc(C(=O)Nc2ccc(Cl)c(-c3ccccn3)c2)c(Cl)c1", "note": "[vismodegib]", "values": [{"measurement": "tumor appearance (scabbing/crusting)", "setting": "BCC tumors; oral daily via gastric gavage 5 mg/kg, after 18-25 days of treatment, FIG. 12", "result": "visible signs of scabbing/crusting of the tumors"}]}
{"molecule": "Ptch1.2559: shRNA targeting mouse Ptch1, nucleobases 2776-2796 of SEQ ID NO: 12; selected for the BCC model (nucleic acid) guide: TCATGCCAAACAATTATAAAATAGTGAAGCCACAGATGTATTTTATAATTGTTTGGCATGA", "values": [{"measurement": "knockdown efficiency", "setting": "mouse Ptch1", "result": 101.24, "unit": "%"}]}
